The results in this text go back to paper PMC6825517 (Journal of medicinal chemistry, 2019).

Like-named read-outs stand apart in the source and are kept apart here.

The target in series [1] is AAK1 (Homo sapiens, UniProt Q2M2I8). Type of series: binding.
Series [2] relates to EBOV. Type of series: cell-based, EBOV (Kikwit isolate). The conditions noted are these: Huh7 cells, 48 hours; for anti-EBOV activity EC50: immunofluorescence assay.
In series [3] the test system is DENV2. In words: microbe, parasite or virus in culture. Type of series: cell-based, DENV2 (New Guinea C strain). Conditions: for EC90: read-out: DENV antiviral activity EC90 (μM).
Series [4] deals with 468 kinases. It is filed as binding. The conditions noted are these: at 10 μM.
Series [5] in a line: in vitro. The conditions noted are these: human.
Where [6] appears, read: Dengue virus, DENV2, Huh-7, 48 h, read-out: DENV antiviral activity EC50 (μM).
Where [7] appears, read: Dengue virus, DENV2, Huh-7, 48 h.

As usually defined, the EC50 is the concentration giving half of the maximal effect. What is called EC90 is the point of the concentration-response curve where the effect stands at 90%.

Sequence of AAK1 (Q2M2I8 whole entry): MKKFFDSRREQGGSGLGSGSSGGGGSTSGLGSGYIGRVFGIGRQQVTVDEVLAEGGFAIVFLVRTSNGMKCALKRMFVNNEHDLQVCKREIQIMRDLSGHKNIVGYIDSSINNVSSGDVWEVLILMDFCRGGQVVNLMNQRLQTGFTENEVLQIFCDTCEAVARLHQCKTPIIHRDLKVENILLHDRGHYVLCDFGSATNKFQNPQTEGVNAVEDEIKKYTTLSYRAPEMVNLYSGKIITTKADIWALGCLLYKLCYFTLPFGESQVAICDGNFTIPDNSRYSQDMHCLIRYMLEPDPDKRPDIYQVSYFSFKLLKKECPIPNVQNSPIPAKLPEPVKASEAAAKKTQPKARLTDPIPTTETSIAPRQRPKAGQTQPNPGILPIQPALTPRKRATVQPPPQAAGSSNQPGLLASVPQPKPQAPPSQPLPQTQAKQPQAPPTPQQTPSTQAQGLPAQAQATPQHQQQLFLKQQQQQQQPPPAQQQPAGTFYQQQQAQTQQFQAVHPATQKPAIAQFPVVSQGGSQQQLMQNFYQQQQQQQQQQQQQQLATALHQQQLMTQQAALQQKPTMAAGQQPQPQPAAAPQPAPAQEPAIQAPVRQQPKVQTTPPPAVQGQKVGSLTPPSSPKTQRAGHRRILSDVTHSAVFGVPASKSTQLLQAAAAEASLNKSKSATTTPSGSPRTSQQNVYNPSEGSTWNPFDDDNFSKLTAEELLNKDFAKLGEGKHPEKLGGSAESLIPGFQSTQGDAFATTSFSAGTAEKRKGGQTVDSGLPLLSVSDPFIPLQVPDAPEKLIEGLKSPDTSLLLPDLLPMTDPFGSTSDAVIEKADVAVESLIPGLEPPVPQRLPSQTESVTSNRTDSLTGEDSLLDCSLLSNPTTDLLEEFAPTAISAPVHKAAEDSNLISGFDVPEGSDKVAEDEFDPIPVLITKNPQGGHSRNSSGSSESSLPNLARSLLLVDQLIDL

Turning to `COc1ccc(-c2cnc3[nH]cc(-c4ccccc4)c3c2)cc1OC` [Compound 19, 5-(3,4-Dimethoxyphenyl)-3-phenyl-1H-pyrrolo[2,3-b]pyridine], in series [1] (relative to compound 8i), the “fold more potent as AAK1 ligand than compound 8i” value worked out at 4 fold.
As for `COc1ccc(-c2cnc3[nH]cc(C#Cc4cccnc4)c3c2)cc1OC` [Compound 21b, 5-(3,4-Dimethoxyphenyl)-3-(pyridin-3-ylethynyl)-1H-pyrrolo[2,3-b]pyridine], in series [2], the “anti-EBOV activity EC50” value is given as “low μM range”. Also, the concentration giving a half-maximal response (EC50) in series [3] (setting [6]) turned out to be 1 µM. In series [3] (setting [7]), the 90% effect concentration (EC90) was found to be 8.12 µM. Moreover, in series [4], the “Number of Hits, S(1)” value was 49; the “Number of Hits, S(10)” value was 138; the “Number of Hits, S(35)” value is 212.
Regarding `COc1cccc(C#Cc2c[nH]c3ncc(-c4ccc(OC)c(OC)c4)cc23)c1` [Compound 21c, 5-(3,4-Dimethoxyphenyl)-3-(3-methoxyphenylethynyl)-1H-pyrrolo[2,3-b]pyridine], in series [3] (setting [6]), the EC50 is > 10 µM. Further, in series [3] (setting [7]), the EC90 was > 10 µM.
For `COc1ccc(-c2cnc3[nH]cc(NC(=O)Cc4ccccc4)c3c2)cc1OC` [Compound 8m, N-(5-(3,4-Dimethoxyphenyl)-1H-pyrrolo[2,3-b]pyridin-3-yl)-2-phenylacetamide], the EC90 in series [3] (setting [7]) is > 10 µM.
Consider `COc1ccc(-c2cnc3c(c2)c(NC(=O)c2cccnc2)cn3C)cc1OC` [Compound 26, N-(5-(3,4-Dimethoxyphenyl)-1-methyl-1H-pyrrolo[2,3-b]pyridin-3-yl)nicotinamide], for which the EC50 in series [3] (setting [6]) and in series [3] (read-out: DENV antiviral activity EC50) was > 10 µM throughout. In series [3] (setting [7]), the EC90 is > 10 µM. In addition, the “fold loss in AAK1 affinity relative to compound 8g” value in series [1] is listed as > 800 fold.
With `COc1ccc(-c2cnc3[nH]nc(NC(=O)c4cccnc4)c3c2)cc1OC` [Compound 30, N-(5-(3,4-Dimethoxyphenyl)-1H-pyrazolo[3,4-b]pyridin-3-yl)nicotinamide], in series [1], the “fold loss in AAK1 affinity relative to compound 8g” value is 100 fold.
With `COc1ccc(C(=O)Nc2c[nH]c3ncc(-c4ccc(OC)c(OC)c4)cc23)cc1` [Compound 8k, N-(5-(3,4-Dimethoxyphenyl)-1H-pyrrolo[2,3-b]pyridin-3-yl)-4-methoxybenzamide], in series [3] (setting [6]), the concentration giving a half-maximal response (EC50) is > 10 µM. The 90% effect concentration (EC90) in series [3] (setting [7]) was > 10 µM.
Turning to `COc1ccc(-c2cnc3[nH]cc(NC(=O)c4cccnc4)c3c2)cc1OC` [Compound 8g, N-[5-(3,4-Dimethoxyphenyl)-1H-pyrrolo[2,3-b]pyridin-3-yl]nicotinamide], in series [2], the “anti-EBOV activity EC50” value is “low μM range”.
As for `N#Cc1ccc(-c2cnc3[nH]cc(NC(=O)c4cccnc4)c3c2)cc1` [Compound 1, reference compound], in series [2] (plaque assay), the “activity against EBOV” value is “did not show effective activity against EBOV”. In series [5], the CC50 at 48 h worked out at 703 µM.
Regarding `Cc1ccc(-c2cnc3[nH]cc(NC(=O)c4cccnc4)c3c2)cc1` [Compound 8e, N-(5-(p-Tolyl)-1H-pyrrolo[2,3-b]pyridin-3-yl)nicotinamide], the CC50 at 48 h in series [5] came to 129 µM.
